Molecules are shown by their SMILES.

The subject of one experiment is r(CUG)12-MBNL1 complex. The experiment in a line: Inhibition of the r(CUG)12-MBNL1 complex measured by TR-FRET. It counts as biochemical. The following applies: Table L; 80 nM RNA, 60 nM MBNL1-His6.
One may read the IC50 as the concentration needed to halve the response being measured. Higher therefore signals lower potency. The molecule `NC(=O)Cc1ccc(-c2nc3cc(-c4ccc5[nH]c(-c6ccc(CC(N)=O)cc6)nc5c4)ccc3[nH]2)cc1` [Compound 124, 2,2′-(1H,1′H-[5,5′-bibenzo[d]imidazole]-2,2′-diylbis(4,1-phenylene))diacetamide] came in with a half-maximal inhibitory concentration (IC50) of 170 µM.
The same measure, in the same setting: next, `COc1ccc(-c2nc3cc(-c4ccc5[nH]c(-c6ccc(OC)cc6)nc5c4)ccc3[nH]2)cc1` [Compound 106]: > 200 µM; `CN(C)CCOC(=O)c1ccc2nc(-c3ccc(-c4nc5ccc(C(=O)OCCN(C)C)cc5[nH]4)cc3)[nH]c2c1` [Compound 54, bis(2-(dimethylamino)ethyl) 2,2′-(1,4-phenylene)bis(1H-benzo[d]imidazole-6-carboxylate)]: 3.6 µM.
`CN(C)CCCNC(=O)c1ccc2nc(-c3ccc(-c4nc5ccc(C(=O)NCCCN(C)C)cc5[nH]4)cc3)[nH]c2c1` [Compound 36, 2,2′-(1,4-phenylene)bis(N-(3-(dimethylamino)propyl)-1H-benzo[d]imidazole-6-carboxamide)] had an IC50 of 7.7 µM.
Consider `O=[N+]([O-])c1ccc2nc(-c3ccc(-c4ccc(-c5nc6ccc([N+](=O)[O-])cc6[nH]5)cc4)cc3)[nH]c2c1` [Compound 79], for which the IC50 was 43.9 µM.
Turning to `NC(=O)c1ccc(-c2nc3cc(-c4ccc5[nH]c(-c6ccc(C(N)=O)cc6)nc5c4)ccc3[nH]2)cc1` [Compound 101], the IC50 is > 200 µM.
Consider `CCCNC(=O)c1ccc2nc(-c3ccc(-c4nc5ccc(C(=O)NCCC)cc5[nH]4)cc3)[nH]c2c1` [Compound 52, 2,2′-(1,4-phenylene)bis(N-propyl-1H-benzo[d]imidazole-6-carboxamide)], for which the IC50 was > 200 µM.
The molecule `c1cc2nc(-c3ccc(-c4nc5ccc(C6=NCCN6)cc5[nH]4)cc3)[nH]c2cc1C1=NCCN1` [Compound 14, 1,4-bis(6-(4,5-dihydro-1H-imidazol-2-yl)-1H-benzo[d]imidazol-2-yl)benzene] returned an IC50 of 11 µM.
For `N#Cc1ccc(-c2nc3cc(-c4ccc5[nH]c(-c6ccc(C#N)cc6)nc5c4)ccc3[nH]2)cc1` [Compound 100], the IC50 was 6.2 µM.
Same read-out and setting: for `Cn1c(-c2ccc(-c3nc4ccc(N)cc4n3C)cc2)nc2cc(N)ccc21` [Compound 84, 2-[4-(6-amino-1-methyl-1H-benzimidazol-2-yl)phenyl]-1-methyl-1H-benzimidazol-5-amine] the value was > 200 µM.
Take `c1cn(-c2ccc3nc(-c4ccc(-c5nc6ccc(-n7ccnc7)cc6[nH]5)cc4)[nH]c3c2)cn1` [Compound 20, 1,4-bis(6-(1H-imidazol-1-yl)-1H-benzo[d]imidazol-2-yl)benzene]: the IC50 is > 200 µM.
On the same count and under the same terms, for `CN(C)CCNCc1ccc2nc(-c3ccc(-c4nc5ccc(CNCCN(C)C)cc5[nH]4)cc3)[nH]c2c1` [Compound 61] the value was > 200 µM; for `CN(C)CCNC(=O)c1ccc2nc(-c3ccc(-c4nc5ccc(C(=O)NCCN)cc5[nH]4)cc3)[nH]c2c1` [Compound 29, N-(2-aminoethyl)-2-(4-(6-((2-(dimethylamino)ethyl)carbamoyl)-1H-benzo[d]imidazol-2-yl)phenyl)-1H-benzo[d]imidazole-6-carboxamide], 9.6 µM; for `O=C(NCCN1CCCC1)c1ccc2nc(-c3ccc(-c4nc5ccc(C(=O)NCCN6CCCC6)cc5[nH]4)cc3)[nH]c2c1` [Compound 40, 2,2′-(1,4-phenylene)bis(N-(2-(pyrrolidin-1-yl)ethyl)-1H-benzo[d]imidazole-6-carboxamide)], 7 µM.

Staying with this experiment, now noted: Table M; 80 nM RNA, 60 nM MBNL1-His6.
On to `CN(C)CCNC(=O)CSc1ccc2nc(-c3ccc(-c4nc5ccc(SCC(=O)NCCN(C)C)cc5[nH]4)cc3)[nH]c2c1` [Compound 285, N-[2-(dimethylamino)ethyl]-2-[[2-(4-[6-[([[2-(dimethylamino)ethyl]carbamoyl]methyl)sulfanyl]-1H-1,3-benzodiazol-2-yl]phenyl)-1H-1,3-benzodiazol-6-yl]sulfanyl]acetamide], for which the IC50 was > 200 µM.
`[N-]=[N+]=NCCCOc1ccc(-c2nc3cc(-c4ccc5[nH]c(-c6ccc(OCCCN)cc6)nc5c4)ccc3[nH]2)cc1` [Compound 379]: the IC50 amounted to 28.8 µM.
Same read-out and setting: next, `CN(C)CCCOc1ccc2nc(-c3ccc(-c4nc5ccc(OCCCC#N)cc5[nH]4)cc3)[nH]c2c1` [Compound 241, 4-((2-(4-(6-(3-(dimethylamino)propoxy)-1H-benzo[d]imidazol-2-yl)phenyl)-1H-benzo[d]imidazol-6-yl)oxy)butanenitrile]: 64.7 µM; `CN(C)CC#CCOc1ccc2nc(-c3ccc(-c4nc5ccc(OCC#CCN(C)C)cc5[nH]4)cc3)[nH]c2c1` [Compound 226, 4,4′-((2,2′-(1,4-phenylene)bis(1H-benzo[d]imidazole-6,2-diyl))bis(oxy))bis(N,N-dimethylbut-2-yn-1-amine)]: > 200 µM; `Cc1cc(-c2nc3cc(-c4ccc5[nH]c(-c6cc(C)c(OCCCN(C)C)c(C)c6)nc5c4)ccc3[nH]2)cc(C)c1O` [Compound 361]: 9.64 µM.
Regarding `CN(C)CCCOc1ccc2nc(-c3ccc(-c4nc5ccc(C(=O)NCCN(C)C)cc5[nH]4)cc3)[nH]c2c1` [Compound 238], the IC50 was 10 µM.
The same measure, in the same setting: next, `CN(C)CCCOc1cc2[nH]c(-c3cc(F)c(-c4nc5cc(F)c(OCCCN(C)C)cc5[nH]4)cc3F)nc2cc1F` [Compound 331]: 3.11 µM; `CN(C)CCNC(=O)c1ccc(-c2nc3ccc(-c4ccc5nc(-c6ccc(C(=O)NC7CCC(CC8CCC(NC(=O)c9ccc(-c%10nc%11ccc(-c%12ccc%13nc(-c%14ccc(C(=O)NCCN(C)C)cc%14)[nH]c%13c%12)cc%11[nH]%10)cc9)CC8)CC7)cc6)[nH]c5c4)cc3[nH]2)cc1` (stereo not drawn) [Compound 428]: 2.9 µM; `CN(C)CCCNC(=O)c1ccc2nc(-c3ccc(-c4nc5ccc(OCCCN(C)C)cc5[nH]4)cc3)[nH]c2c1` [Compound 239]: 24.8 µM.
Same read-out and setting: for `CN(C)CCCOc1ccc2nc(-c3ccc(-c4nc5ccc(OCCCN=[N+]=[N-])cc5[nH]4)cc3)[nH]c2c1` [Compound 235, 3-((2-(4-(6-(3-azidopropoxy)-1H-benzo[d]imidazol-2-yl)phenyl)-1H-benzo[d]imidazol-6-yl)oxy)-N,N-dimethylpropan-1-amine] the value was 78.2 µM; for `CN(C)CC(CN(C)C)Oc1ccc2nc(-c3ccc(-c4nc5ccc(OC(CN(C)C)CN(C)C)cc5[nH]4)cc3)[nH]c2c1` [Compound 184], > 200 µM; for `CN1CCC[C@H]1COc1ccc2nc(-c3ccc(-c4nc5ccc(OC[C@@H]6CCCN6C)cc5[nH]4)cc3)[nH]c2c1` [Compound 199], 47.8 µM.
`C[C@@H](NC(=O)CNCCNC(=O)c1ccc(-c2nc3cc(-c4ccc5[nH]c(-c6ccc(OCCCN(C)C)cc6)nc5c4)ccc3[nH]2)cc1)C(=O)N[C@H](C)C(=O)N[C@H](C)C(=O)N[C@H](C)C(=O)N(CCNC(=O)c1ccc(-c2nc3cc(-c4ccc5[nH]c(-c6ccc(OCCCN(C)C)cc6)nc5c4)ccc3[nH]2)cc1)CC(N)=O` [Compound 448] showed an IC50 of 3.5 µM.
The same measure, in the same setting: for `CN(C)Cc1cn(-c2ccc3nc(-c4ccc(-c5nc6ccc(-n7cc(CN(C)C)nn7)cc6[nH]5)cc4)[nH]c3c2)nn1` [Compound 247] the value was 6.8 µM; for `NCCCOc1ccc(-c2nc3cc(-c4ccc5[nH]c(-c6ccc(O)cc6)nc5c4)ccc3[nH]2)cc1` [Compound 380], 16.7 µM; for `CN(C)CCC#Cc1ccc(-c2nc3cc(-c4ccc5[nH]c(-c6ccc(C#CCCN(C)C)cc6)nc5c4)ccc3[nH]2)cc1` [Compound 386], 46.4 µM.
In turn, `CN(C)CCCCOc1ccc(-c2nc3cc(-c4ccc5[nH]c(-c6ccc(OCCCCN(C)C)cc6)nc5c4)ccc3[nH]2)cc1` [Compound 362] displayed an IC50 of 29 µM.
Take `CCN(CC)CCCOc1ccc2nc(-c3ccc(-c4nc5ccc(O)cc5[nH]4)cc3)[nH]c2c1` [Compound 188]: it took 46.9 µM to reach half-maximal inhibition (IC50).
The molecule `OCCOc1cc(-c2nc3ccc(O)cc3[nH]2)ccc1-c1nc2ccc(O)cc2[nH]1` [Compound 261] showed an IC50 of 74.1 µM.
Same read-out and setting: next, `CCN(CC)CCCOc1ccc2nc(-c3ccc(-c4nc5ccc(OCCCN(CC)CC)cc5[nH]4)cc3)[nH]c2c1` [Compound 187]: 58.9 µM; `CN(C)CCNC(=O)c1ccc(-c2nc3ccc(-c4ccc5nc(-c6ccc(C(=O)N7CCC(CCCC8CCN(C(=O)c9ccc(-c%10nc%11ccc(-c%12ccc%13nc(-c%14ccc(C(=O)NCCN(C)C)cc%14)[nH]c%13c%12)cc%11[nH]%10)cc9)CC8)CC7)cc6)[nH]c5c4)cc3[nH]2)cc1` [Compound 427]: 3.23 µM.
In turn, `COCCCOc1ccc(-c2nc3cc(-c4ccc5[nH]c(-c6ccc(C(=O)NCCN(C)C)cc6)nc5c4)ccc3[nH]2)cc1` [Compound 391] showed an IC50 of 18.4 µM.
Consider `CCCOc1cc(-c2nc3cc(OCCCN(C)C)ccc3[nH]2)c(OCCC)cc1-c1nc2cc(OCCCN(C)C)ccc2[nH]1` [Compound 332], for which the IC50 turned out to be 27.2 µM.
The same measure, in the same setting: for `CN(C)CCNC(=O)c1ccc2nc(-c3ccc(-c4nc5ccc(C(=O)O)cc5[nH]4)cc3)[nH]c2c1` [Compound 319] the value was > 200 µM; for `CN(C)CCCCCCOc1ccc2nc(-c3ccc(-c4nc5ccc(O)cc5[nH]4)cc3)[nH]c2c1` [Compound 209], 19.4 µM; for `CN(C)CCNC(=O)c1ccc(-c2nc3ccc(-c4ccc5nc(-c6ccc(C(=O)N(C)CCOCCOCc7cn(CCCNCC(=O)N8CCC[C@H]8C(=O)N8CCC[C@H]8C(=O)N8CCC[C@H]8C(=O)N8CCC[C@H]8C(=O)N(CCCn8cc(COCCOCCN(C)C(=O)c9ccc(-c%10nc%11ccc(-c%12ccc%13nc(-c%14ccc(C(=O)NCCN(C)C)cc%14)[nH]c%13c%12)cc%11[nH]%10)cc9)nn8)CC(N)=O)nn7)cc6)[nH]c5c4)cc3[nH]2)cc1` [Compound 432], 11.6 µM.
As to `N#CCCCOc1ccc2nc(-c3ccc(-c4nc5ccc(OCCCC#N)cc5[nH]4)cc3)[nH]c2c1` [Compound 289], the IC50 was > 200 µM.
For `CN(C)CCCN(CCCNC(=O)c1ccc(-c2nc3ccc(-c4ccc5nc(-c6ccc(C(=O)NCCN(C)C)cc6)[nH]c5c4)cc3[nH]2)cc1)C(=O)c1ccc(-c2nc3ccc(-c4ccc5nc(-c6ccc(C(=O)NCCN(C)C)cc6)[nH]c5c4)cc3[nH]2)cc1` [Compound 450], the IC50 amounted to 29.2 µM.

These data come from patent US10961202B2, “Bis-benzimidazole compounds and methods of using the same” (THE SCRIPPS RESEARCH INSTITUTE, priority 2017, dated 2021).
